Source: ChEMBL document CHEMBL1121436, “2,4-Diamino-5-benzylpyrimidines as antibacterial agents. 4. 6-Substituted trimethoprim derivatives from phenolic Mannich intermediates. Application to the synthesis of trimethoprim and 3,5-dialkylbenzyl analogues” (J Med Chem, 1980)
Values after ≈ are worked out from the molar mass of the structure shown.

Key:
[1] = tested on: Escherichia coli; assay: Tested for antibacterial activity against Escherichia coli CN314; assay type: functional
[2] = tested on: Staphylococcus aureus; assay: Tested for antibacterial activity against Staphylococcus aureus CN491
[3] = tested on: Shigella dysenteriae; assay: Tested for antibacterial activity against Shigella dysentariae CN1513; assay type: functional
[4] = tested on: Proteus vulgaris; assay: Tested for antibacterial activity against Proteus vulgaris CN329; assay type: functional
[5] = tested on: Salmonella; assay: Tested for antibacterial activity against Salmonella typhi CN512; assay type: functional, salmonella typhosa
[6] = tested on: Streptococcus pyogenes; assay: Tested for antibacterial activity against Streptococcus pyogenes CN10; assay type: functional
[7] = biological target: T1, Dihydrofolate reductase (Rattus norvegicus, UniProt Q920D2); assay: Inhibition against dihydrofolate reductase enzyme of rat liver; details: read-out: I50
T1 sequence (Q920D2 whole entry): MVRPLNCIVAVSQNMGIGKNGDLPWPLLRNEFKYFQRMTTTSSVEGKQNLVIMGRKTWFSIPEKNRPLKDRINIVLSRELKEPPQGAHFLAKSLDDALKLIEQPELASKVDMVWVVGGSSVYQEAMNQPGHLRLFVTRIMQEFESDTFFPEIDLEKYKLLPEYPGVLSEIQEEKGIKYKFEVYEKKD

[8] = biological target: T2, Bifunctional dihydrofolate reductase-thymidylate synthase (Plasmodium berghei str. ANKA, UniProt Q27713); assay: Compound was tested for its inhibition against dihydrofolate reductase enzyme of Plasmodium berghei; details: read-out: I50
[9] = biological target: T2, Bifunctional dihydrofolate reductase-thymidylate synthase; assay: Tested for the inhibition of Plasmodium berghei dihydrofolate reductase enzyme; details: read-out: I50
[10] = tested on: Staphylococcus aureus; assay: Tested for antibacterial activity against Staphylococcus aureus CN491; assay type: functional

T2 sequence (Q27713 whole entry): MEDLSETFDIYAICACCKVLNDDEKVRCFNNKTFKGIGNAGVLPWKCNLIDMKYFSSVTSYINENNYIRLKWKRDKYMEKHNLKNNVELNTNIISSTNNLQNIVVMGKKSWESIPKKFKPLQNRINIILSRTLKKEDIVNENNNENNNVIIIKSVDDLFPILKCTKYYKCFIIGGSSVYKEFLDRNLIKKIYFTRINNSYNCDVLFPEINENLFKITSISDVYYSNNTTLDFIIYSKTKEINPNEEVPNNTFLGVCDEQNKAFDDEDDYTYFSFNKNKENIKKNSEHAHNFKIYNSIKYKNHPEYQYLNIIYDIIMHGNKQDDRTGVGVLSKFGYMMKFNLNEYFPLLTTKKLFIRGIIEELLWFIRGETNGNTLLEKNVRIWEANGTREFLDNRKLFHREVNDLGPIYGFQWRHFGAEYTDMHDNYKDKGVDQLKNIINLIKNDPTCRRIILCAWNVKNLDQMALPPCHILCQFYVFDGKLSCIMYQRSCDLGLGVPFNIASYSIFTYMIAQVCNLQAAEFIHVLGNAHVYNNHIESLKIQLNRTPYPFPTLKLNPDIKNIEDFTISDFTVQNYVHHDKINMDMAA

Question: For COc1c(C(C)(C)C)cc(Cc2c(N)nc(N)nc2SC)cc1C(C)(C)C, which MIC [1] is on record?
Answer: > 500 µg/mL

Question: And the MIC [2]?
Answer: > 500 µg/mL

Question: What about the MIC [3] of the same compound?
Answer: > 500 µg/mL

Question: And the MIC [4]?
Answer: > 500 µg/mL

Question: What about the MIC [5] of the same compound?
Answer: > 500 µg/mL

Question: And the MIC [6]?
Answer: > 500 µg/mL

Question: How did the IC50 [7] turn out when CCCc1nc(N)nc(N)c1Cc1cc(OC)c(OC)c(OC)c1 was run?
Answer: 1500 µM

Question: COc1cc(Cc2c(N)nc(N)nc2Oc2ccccc2)cc(OC)c1OC was tested. Which MIC [1] did it give?
Answer: > 500 µg/mL

Question: What about the MIC [2] of the same compound?
Answer: > 500 µg/mL

Question: And the MIC [3]?
Answer: > 500 µg/mL

Question: What about the MIC [4] of the same compound?
Answer: > 500 µg/mL

Question: And the MIC [5]?
Answer: > 500 µg/mL

Question: And the MIC [6]?
Answer: > 500 µg/mL

Question: How did the IC50 [7] turn out when COc1cc(Cc2c(N)nc(N)nc2-c2ccccc2)cc(OC)c1O was run?
Answer: > 45 µM

Question: How did the IC50 [8] turn out when COc1cc(Cc2c(C)nc(N)nc2N)cc(OC)c1O was run?
Answer: 0.48 µM

Question: With COc1cc(Cc2c(N)nc(N)nc2SC)cc(OC)c1OC as the compound, how does the IC50 [9] read?
Answer: 20 µM

Question: Which results are given for COc1cc(Cc2c(N)nc(N)nc2-c2ccccc2)cc(OC)c1OC?
Answer: MIC [1]: 250 µg/mL (≈ 682 µM); IC50 [7]: > 400 µM; MIC [2]: 62 µg/mL (≈ 169 µM); MIC [3]: 125 µg/mL (≈ 341 µM); MIC [4]: > 500 µg/mL; MIC [5]: 250 µg/mL (≈ 682 µM); MIC [6]: 16 µg/mL (≈ 43.7 µM)

Question: Which IC50 [7] does the source give for COc1cc(Cc2c(C)nc(N)nc2N)cc(OC)c1OC here?
Answer: > 400 µM

Question: And the IC50 [8]?
Answer: 0.34 µM

Question: COc1cc(Cc2c(N)nc(N)nc2N)cc(OC)c1OC was tested. Which IC50 [7] did it give?
Answer: > 900 µM

Question: What does the source list for COc1cc(Cc2c(N)nc(N)nc2OC)cc(OC)c1OC?
Answer: MIC [1]: > 500 µg/mL; MIC [10]: 125 µg/mL (≈ 390 µM); IC50 [7]: > 100 µM; MIC [3]: > 500 µg/mL; MIC [4]: > 500 µg/mL; MIC [5]: > 500 µg/mL; MIC [6]: 8 µg/mL (≈ 25 µM)

Question: With CCCc1nc(N)nc(N)c1Cc1cc(OC)c(O)c(OC)c1 as the compound, how does the IC50 [8] read?
Answer: 1.5 µM
